Test results published in US10105367B2, “Therapeutic thiophene-, furan-, and pyridine-fused azolopyrimidin-5-(6h)-ones” (Dart Neuroscience (Cayman) Ltd., priority 2012, dated 2018).

What follows are compounds tested against human PDE1B (Homo sapiens (Human), UniProt Q01064) (assay: PDE1B inhibitory assay (IMAP TR-FRET)). Details: PDE1B pIC50, negative log of half-maximal molar inhibitory concentration; 200 nM FAM-cAMP, Calmodulin, CaCl2.

Row | Compound | IC50 [µM]
1 | COc1ccc(Cn2c(=O)n3ncnc3c3nc(N(C)CCN(C)C)cnc32)cc1 [Example 196] | 1 to 10
2 | Cc1cc(Cn2c(=O)n3ncnc3c3cc(CN4C[C@@H](C)O[C@@H](C)C4)cnc32)ccc1F [Example 274] | 0.1 to 1
3 | COc1ccc(Cn2c(=O)n3ncnc3c3c(C)c(CN4CCNCC4)sc32)cc1 [Example 49] | 0.1 to 1
4 | COc1ccc(Cn2c(=O)n3ncnc3c3c(C)c(CO)sc32)cc1 [Example 77, 8-(Hydroxymethyl)-6-(4-methoxybenzyl)-9-methylthieno[3,2-e][1,2,4]triazolo[1,5-c]pyrimidin-5(6H)-one] | 0.1 to 1
5 | C[C@@H]1CN(Cc2cnc3c(c2)c2ncnn2c(=O)n3Cc2ccc(Cl)c(F)c2)C[C@H](C)O1 [Example 298] | 0.1 to 1
6 | COc1ccc(Cn2c(=O)n3ncnc3c3cc(CN4CCN(C(=O)C5CCOC5)CC4)cnc32)cc1 (centres unmarked) [Example 255] | 0.1 to 1
7 | COc1ccc(Cn2c(=O)n3ncnc3c3ccc(C(OC)OC)nc32)cc1 [Example 187] | 1 to 10
8 | C[C@@H]1CN(Cc2cnc3c(c2)c2ncnn2c(=O)n3Cc2ccc(F)cc2)C[C@H](C)O1 [Example 275] | 0.1 to 1

Same assay, conditions: negative log of half-maximal molar inhibitory concentration; 200 nM FAM-cAMP, Calmodulin, CaCl2

Row | Compound | PDE1B pIC50
9 | COc1ccc(Cn2c(=O)n3ncnc3c3c4c(sc32)N(CC2CCCOC2)CCC4)cc1 (centres unmarked) [Example 149] | >7
10 | COc1ccc(Cn2c(=O)n3ncnc3c3cc(C(C)N4C[C@@H](C)O[C@@H](C)C4)cnc32)cc1 (stereo partly drawn) [Example 266, 9-(1-((2S,6R)-2,6-Dimethylmorpholino)ethyl)-6-(4-methoxybenzyl)pyrido[3,2-e][1,2,4]triazolo[1,5-c]pyrimidin-5(6H)-one] | >7
11 | COc1ccc(Cn2c(=O)n3ncnc3c3c4c(sc32)N(CC2CCOC2)CCC4)cc1 (centres unmarked) [Example 150] | >7
12 | O=c1n(Cc2ccc(Cl)cc2F)c2sc3c(c2c2ncnn12)CCN(Cc1ccccn1)C3 [Example 130] | >7
13 | C[C@@H]1CN(Cc2cnc3c(c2)c2ncnn2c(=O)n3Cc2cccc(C#N)c2)C[C@H](C)O1 [Example 281] | <5
14 | COc1ccc(Cn2c(=O)n3ncnc3c3cc(CN4CCN5C(=O)OCC5C4)sc32)cc1 (centres unmarked) [Example 40] | >7
15 | COc1ccc(Cn2c(=O)n3ncnc3c3c4c(sc32)CN(Cc2ncccn2)CCC4)cc1 [Example 145] | >7
16 | COc1ccc(Cn2c(=O)n3ncnc3c3c(C)c(CNCC4(C)COC4)sc32)cc1 [Example 50] | >7
17 | COc1ccc(Cn2c(=O)n3ncnc3c3cc(CN4CCC5(CCOCC5)N4C)cnc32)cc1 [Example 228] | >7
